Test results from ChEMBL document CHEMBL5212743, “Selectivity Literature for EUbOPEN Chemogenomics Library wave 3” (2023).
Each block holds one molecule with its values, some of them ahead of it.

Experiments:
[1] = molecular target: T1, Non-receptor tyrosine-protein kinase TYK2 (Homo sapiens, UniProt P29597); test: Selectivity interaction (KinomeScan (DiscoverX, competition-binding assay)) EUB0000178b TYK2
[2] = molecular target: T2, Serine/threonine-protein kinase TAO3 (Homo sapiens) (UniProt Q9H2K8); test: Selectivity interaction (KinomeScan (DiscoverX)) EUB0000178b TAOK3; conditions: at 1 µM
T2 sequence (whole entry): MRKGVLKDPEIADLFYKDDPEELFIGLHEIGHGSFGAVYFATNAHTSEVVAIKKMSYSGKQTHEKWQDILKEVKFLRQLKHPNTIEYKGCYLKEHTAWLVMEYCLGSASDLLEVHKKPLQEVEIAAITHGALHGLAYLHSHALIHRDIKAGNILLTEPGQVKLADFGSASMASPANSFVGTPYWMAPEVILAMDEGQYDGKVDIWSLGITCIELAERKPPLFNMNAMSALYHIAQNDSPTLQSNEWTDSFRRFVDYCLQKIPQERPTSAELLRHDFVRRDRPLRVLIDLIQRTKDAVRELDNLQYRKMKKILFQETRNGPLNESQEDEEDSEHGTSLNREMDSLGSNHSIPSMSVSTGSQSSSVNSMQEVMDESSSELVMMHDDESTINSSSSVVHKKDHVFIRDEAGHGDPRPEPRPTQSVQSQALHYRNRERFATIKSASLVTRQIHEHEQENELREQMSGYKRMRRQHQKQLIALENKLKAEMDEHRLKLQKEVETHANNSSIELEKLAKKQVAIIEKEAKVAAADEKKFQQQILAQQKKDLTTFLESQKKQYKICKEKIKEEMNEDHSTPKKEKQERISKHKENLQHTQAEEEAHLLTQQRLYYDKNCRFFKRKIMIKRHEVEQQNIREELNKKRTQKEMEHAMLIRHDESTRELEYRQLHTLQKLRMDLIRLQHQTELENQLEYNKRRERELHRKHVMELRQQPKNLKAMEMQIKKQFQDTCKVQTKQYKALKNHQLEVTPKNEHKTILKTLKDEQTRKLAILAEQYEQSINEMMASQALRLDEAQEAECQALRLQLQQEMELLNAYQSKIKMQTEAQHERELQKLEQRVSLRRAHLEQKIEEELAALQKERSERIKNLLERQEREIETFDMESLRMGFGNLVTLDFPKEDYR

[3] = molecular target: Phosphatidylinositol 4,5-bisphosphate 3-kinase catalytic subunit gamma isoform (Homo sapiens, UniProt P48736); test: Selectivity interaction (KinomeScan (DiscoverX, competition-binding assay)) EUB0000178b PIK3CG
[4] = molecular target: Tyrosine-protein kinase JAK1 (Homo sapiens, UniProt P23458); test: Selectivity interaction (KinomeScan (DiscoverX)) EUB0000178b JAK1@kinase 2; conditions: at 1 µM
[5] = molecular target: T1, Non-receptor tyrosine-protein kinase TYK2; test: Selectivity interaction (Enzymatic assay) EUB0000178b TYK2
[6] = molecular target: MAP kinase-activated protein kinase 2 (Homo sapiens, UniProt P49137); test: Selectivity interaction (Kinase panel (University of Dundee)) EUB0000169b MAPKAPK2; conditions: at 10 µM
[7] = molecular target: Rho-associated protein kinase 2 (Homo sapiens) (UniProt O75116); test: Selectivity interaction (Kinase panel (University of Dundee)) EUB0000169b ROCK2; conditions: at 10 µM
[8] = molecular target: Calcium/calmodulin-dependent protein kinase kinase 2 (Homo sapiens) (UniProt Q96RR4); test: Selectivity interaction (KinomeScan (DiscoverX)) EUB0000169b CAMKK2; conditions: at 1 µM
[9] = molecular target: T3, Tyrosine-protein kinase JAK3 (Homo sapiens) (UniProt P52333); test: Selectivity interaction (KinomeScan (DiscoverX)) EUB0000138c JAK3; conditions: at 100 nM
T3 sequence (whole entry): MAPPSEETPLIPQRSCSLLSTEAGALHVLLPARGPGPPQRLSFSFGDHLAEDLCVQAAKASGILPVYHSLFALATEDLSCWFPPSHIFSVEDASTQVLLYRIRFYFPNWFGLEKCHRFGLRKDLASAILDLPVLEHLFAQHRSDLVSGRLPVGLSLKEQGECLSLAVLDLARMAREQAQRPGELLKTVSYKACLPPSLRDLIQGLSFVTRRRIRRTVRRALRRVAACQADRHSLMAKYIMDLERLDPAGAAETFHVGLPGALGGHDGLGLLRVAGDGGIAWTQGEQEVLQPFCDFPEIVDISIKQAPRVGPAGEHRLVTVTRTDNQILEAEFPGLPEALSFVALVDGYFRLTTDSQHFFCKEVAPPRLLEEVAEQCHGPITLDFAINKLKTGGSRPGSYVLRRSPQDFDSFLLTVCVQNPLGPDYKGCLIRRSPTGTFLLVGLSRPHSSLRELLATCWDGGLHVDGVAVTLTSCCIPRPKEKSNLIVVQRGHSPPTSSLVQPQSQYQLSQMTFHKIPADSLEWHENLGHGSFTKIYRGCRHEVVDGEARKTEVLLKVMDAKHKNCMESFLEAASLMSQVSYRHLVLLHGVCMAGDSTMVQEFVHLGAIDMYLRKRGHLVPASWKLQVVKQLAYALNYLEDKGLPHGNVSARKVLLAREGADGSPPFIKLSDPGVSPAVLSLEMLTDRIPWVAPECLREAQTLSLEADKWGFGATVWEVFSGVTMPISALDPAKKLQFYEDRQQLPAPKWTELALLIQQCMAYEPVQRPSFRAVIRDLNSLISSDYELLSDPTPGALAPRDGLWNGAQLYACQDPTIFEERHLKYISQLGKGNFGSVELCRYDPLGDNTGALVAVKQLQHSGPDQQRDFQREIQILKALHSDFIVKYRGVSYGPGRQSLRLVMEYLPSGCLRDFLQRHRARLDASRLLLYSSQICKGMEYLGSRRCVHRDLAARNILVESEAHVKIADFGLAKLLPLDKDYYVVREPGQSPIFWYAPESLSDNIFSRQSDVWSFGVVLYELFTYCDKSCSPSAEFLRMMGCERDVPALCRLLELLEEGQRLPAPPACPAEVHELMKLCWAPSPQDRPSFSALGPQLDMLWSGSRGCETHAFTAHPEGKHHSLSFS

[10] = molecular target: Dual specificity protein kinase CLK2 (Homo sapiens, UniProt P49760); test: Selectivity interaction (KinomeScan (DiscoverX)) EUB0000138c CLK2; conditions: at 100 nM
[11] = molecular target: Tyrosine-protein kinase SYK (Homo sapiens, UniProt P43405); test: Selectivity interaction (KinomeScan (DiscoverX)) EUB0000702a SYK; conditions: at 1 µM
[12] = test system: Receptor-type tyrosine-protein kinase FLT3 (Homo sapiens), P36888 [UNDEFINED MUTATION]; test: Selectivity interaction (KinomeScan (DiscoverX)) EUB0000702a FLT3; conditions: at 1 µM
[13] = molecular target: Cyclin-dependent kinase 7 (Homo sapiens) (UniProt P50613); test: Selectivity interaction (KinomeScan (DiscoverX)) EUB0000702a CDK7; conditions: at 1 µM
[14] = molecular target: Dual specificity protein kinase CLK1 (Homo sapiens, UniProt P49759); test: Selectivity interaction (KinomeScan (DiscoverX)) EUB0000702a CLK1; conditions: at 1 µM
[15] = test system: Leucine-rich repeat serine/threonine-protein kinase 2 (Homo sapiens), Q5S007 [G2019S]; test: Selectivity interaction (KinomeScan (DiscoverX)) EUB0000702a LRRK2; conditions: at 1 µM

T1 sequence (P29597 whole entry): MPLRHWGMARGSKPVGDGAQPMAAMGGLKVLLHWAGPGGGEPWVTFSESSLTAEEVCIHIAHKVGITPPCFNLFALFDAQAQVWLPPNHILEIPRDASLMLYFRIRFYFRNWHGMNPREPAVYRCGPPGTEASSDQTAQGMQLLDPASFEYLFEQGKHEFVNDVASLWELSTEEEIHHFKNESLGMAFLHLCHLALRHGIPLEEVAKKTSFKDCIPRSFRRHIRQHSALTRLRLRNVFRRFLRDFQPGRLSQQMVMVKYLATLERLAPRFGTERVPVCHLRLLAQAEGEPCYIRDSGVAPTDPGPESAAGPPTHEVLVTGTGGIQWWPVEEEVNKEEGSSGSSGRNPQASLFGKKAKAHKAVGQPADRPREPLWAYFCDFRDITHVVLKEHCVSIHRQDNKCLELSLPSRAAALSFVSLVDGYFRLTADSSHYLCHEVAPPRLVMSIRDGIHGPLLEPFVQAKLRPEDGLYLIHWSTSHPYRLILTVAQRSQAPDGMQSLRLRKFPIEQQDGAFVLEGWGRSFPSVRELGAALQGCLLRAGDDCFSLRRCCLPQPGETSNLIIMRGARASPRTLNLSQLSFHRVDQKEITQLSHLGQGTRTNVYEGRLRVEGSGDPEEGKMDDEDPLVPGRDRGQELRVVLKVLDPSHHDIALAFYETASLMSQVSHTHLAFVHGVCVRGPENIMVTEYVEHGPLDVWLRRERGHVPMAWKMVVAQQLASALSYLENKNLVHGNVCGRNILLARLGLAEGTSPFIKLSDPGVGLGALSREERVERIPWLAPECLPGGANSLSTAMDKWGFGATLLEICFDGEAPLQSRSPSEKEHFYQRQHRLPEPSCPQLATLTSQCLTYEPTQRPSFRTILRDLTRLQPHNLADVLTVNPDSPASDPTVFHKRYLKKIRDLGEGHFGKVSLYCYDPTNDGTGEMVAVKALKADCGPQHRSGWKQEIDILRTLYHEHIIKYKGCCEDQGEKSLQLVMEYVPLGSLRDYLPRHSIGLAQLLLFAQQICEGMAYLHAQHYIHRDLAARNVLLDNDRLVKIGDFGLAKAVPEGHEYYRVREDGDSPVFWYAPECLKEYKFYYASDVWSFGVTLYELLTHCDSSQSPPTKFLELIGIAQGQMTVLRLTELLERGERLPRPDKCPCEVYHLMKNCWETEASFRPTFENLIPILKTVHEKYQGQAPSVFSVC
Sequence of Phosphatidylinositol 4,5-bisphosphate 3-kinase catalytic subunit gamma isoform (P48736 whole entry, canonical isoform): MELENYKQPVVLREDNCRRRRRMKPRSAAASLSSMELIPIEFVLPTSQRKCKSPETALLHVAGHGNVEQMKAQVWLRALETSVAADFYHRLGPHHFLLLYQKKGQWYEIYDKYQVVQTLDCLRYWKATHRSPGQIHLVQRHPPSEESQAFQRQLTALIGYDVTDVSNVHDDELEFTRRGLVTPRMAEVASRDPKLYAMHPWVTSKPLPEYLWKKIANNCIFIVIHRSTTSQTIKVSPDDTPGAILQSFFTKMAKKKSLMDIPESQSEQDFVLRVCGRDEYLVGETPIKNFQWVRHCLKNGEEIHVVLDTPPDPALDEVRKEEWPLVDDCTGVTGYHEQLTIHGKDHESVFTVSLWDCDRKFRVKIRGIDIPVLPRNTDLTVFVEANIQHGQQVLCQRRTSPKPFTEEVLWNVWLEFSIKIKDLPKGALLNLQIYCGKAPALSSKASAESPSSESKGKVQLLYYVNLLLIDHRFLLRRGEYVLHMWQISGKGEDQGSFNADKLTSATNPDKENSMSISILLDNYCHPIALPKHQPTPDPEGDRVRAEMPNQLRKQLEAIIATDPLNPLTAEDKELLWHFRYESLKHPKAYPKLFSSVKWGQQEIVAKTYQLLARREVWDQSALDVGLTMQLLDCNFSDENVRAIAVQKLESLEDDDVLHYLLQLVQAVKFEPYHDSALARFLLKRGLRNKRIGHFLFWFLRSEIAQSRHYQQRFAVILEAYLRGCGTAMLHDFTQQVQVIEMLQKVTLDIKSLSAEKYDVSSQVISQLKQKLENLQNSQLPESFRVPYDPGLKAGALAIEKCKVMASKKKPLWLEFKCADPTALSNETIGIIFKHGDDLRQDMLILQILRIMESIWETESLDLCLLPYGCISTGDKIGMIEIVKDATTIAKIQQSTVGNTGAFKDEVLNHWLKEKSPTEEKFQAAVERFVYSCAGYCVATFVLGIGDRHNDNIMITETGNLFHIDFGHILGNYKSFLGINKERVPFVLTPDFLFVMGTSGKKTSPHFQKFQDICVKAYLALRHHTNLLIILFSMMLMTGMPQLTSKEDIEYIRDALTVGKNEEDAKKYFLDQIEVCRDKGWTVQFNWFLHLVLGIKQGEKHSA
Sequence of Rho-associated protein kinase 2 (Homo sapiens) (O75116 whole entry, looked up): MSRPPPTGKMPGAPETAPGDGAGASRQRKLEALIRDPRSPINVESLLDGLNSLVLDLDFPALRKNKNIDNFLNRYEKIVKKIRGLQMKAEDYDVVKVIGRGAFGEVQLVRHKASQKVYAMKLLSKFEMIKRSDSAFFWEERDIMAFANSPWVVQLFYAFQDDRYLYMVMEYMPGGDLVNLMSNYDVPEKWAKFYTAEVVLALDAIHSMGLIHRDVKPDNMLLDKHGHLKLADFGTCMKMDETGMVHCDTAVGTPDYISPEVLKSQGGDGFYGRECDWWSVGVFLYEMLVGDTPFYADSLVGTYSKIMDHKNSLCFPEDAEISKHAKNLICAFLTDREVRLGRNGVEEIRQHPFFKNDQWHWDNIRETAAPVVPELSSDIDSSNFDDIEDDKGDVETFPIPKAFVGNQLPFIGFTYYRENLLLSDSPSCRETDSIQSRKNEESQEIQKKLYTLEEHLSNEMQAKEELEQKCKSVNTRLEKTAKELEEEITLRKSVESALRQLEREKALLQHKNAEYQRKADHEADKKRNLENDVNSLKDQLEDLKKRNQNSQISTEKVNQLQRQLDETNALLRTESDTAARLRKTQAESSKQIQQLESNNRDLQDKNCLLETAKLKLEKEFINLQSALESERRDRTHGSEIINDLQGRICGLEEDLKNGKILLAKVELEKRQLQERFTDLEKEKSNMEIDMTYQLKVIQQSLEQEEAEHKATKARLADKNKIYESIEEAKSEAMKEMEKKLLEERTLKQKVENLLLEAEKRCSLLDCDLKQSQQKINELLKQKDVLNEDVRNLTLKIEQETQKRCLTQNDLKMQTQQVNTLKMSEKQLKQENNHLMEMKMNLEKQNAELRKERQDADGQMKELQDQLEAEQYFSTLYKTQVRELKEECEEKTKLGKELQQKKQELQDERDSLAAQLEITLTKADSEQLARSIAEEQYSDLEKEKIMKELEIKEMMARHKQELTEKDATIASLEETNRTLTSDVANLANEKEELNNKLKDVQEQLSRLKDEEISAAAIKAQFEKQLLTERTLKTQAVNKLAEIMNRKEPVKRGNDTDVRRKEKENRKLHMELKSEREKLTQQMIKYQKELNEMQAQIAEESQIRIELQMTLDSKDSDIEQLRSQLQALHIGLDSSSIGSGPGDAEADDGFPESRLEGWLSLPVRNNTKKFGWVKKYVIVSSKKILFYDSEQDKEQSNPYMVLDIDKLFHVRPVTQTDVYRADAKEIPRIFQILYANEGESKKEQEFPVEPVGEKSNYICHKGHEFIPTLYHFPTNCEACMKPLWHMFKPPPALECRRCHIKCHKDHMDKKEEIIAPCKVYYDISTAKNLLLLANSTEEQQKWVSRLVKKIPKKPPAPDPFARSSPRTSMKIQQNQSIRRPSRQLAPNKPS
Sequence of Dual specificity protein kinase CLK2 (P49760 whole entry, looked up): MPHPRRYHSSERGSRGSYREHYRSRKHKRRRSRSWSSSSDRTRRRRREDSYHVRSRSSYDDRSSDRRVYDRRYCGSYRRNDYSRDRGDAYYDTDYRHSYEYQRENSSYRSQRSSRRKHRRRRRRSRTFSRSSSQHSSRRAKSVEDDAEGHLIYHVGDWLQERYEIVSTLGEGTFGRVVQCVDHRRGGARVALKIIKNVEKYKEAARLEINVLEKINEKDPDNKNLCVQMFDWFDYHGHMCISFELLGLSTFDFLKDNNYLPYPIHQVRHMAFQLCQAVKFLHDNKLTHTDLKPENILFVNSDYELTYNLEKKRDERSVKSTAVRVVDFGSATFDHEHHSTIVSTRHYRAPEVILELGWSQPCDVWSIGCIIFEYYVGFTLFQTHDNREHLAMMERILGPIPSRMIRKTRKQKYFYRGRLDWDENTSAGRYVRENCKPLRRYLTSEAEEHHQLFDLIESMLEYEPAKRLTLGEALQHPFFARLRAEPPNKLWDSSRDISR
Sequence of Cyclin-dependent kinase 7 (Homo sapiens) (P50613 whole entry): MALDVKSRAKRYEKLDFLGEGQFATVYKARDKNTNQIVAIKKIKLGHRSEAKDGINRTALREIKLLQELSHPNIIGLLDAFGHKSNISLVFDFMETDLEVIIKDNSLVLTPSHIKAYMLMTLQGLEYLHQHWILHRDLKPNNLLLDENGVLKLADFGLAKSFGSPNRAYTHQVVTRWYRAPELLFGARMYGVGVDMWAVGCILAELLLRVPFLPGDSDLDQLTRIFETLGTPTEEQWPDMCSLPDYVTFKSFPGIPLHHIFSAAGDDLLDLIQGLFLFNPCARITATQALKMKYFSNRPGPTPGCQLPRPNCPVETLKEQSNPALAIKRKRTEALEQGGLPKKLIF
Sequence of MAP kinase-activated protein kinase 2 (P49137 whole entry, looked up): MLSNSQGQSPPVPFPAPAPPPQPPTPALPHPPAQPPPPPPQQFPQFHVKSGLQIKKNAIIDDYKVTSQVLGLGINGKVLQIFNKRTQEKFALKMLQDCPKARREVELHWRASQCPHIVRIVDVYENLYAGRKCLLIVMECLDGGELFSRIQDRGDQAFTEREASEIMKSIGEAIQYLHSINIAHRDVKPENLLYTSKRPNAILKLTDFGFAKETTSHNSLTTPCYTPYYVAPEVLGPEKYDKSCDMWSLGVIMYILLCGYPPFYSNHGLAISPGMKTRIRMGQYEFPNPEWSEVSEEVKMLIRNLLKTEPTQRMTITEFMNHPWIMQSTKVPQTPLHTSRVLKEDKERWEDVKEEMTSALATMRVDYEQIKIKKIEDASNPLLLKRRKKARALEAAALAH

- Kd [1]: 610 nM
- % of control [2]: 4.5%
- Kd [3]: 8.4 nM
- % of control [4]: 4.3%
- IC50 [5]: 254 nM
SMILES: CN1C(=O)c2sccc2N(C)c2nc(Nc3ccc(S(N)(=O)=O)cc3)ncc21

- % of control [6]: 79%
- % of control [7]: 98%
- % of control [8]: 3.4%
SMILES: CC[C@@H]1C(=O)N(C)c2cnc(Nc3ccc(C(=O)NC4CCN(C)CC4)cc3OC)nc2N1C1CCCC1

- % of control [9]: 8.2%
- % of control [10]: 0%
SMILES: CNC(=O)c1ccc(Nc2ncc(C(F)(F)F)c(NCc3nccnc3N(C)S(C)(=O)=O)n2)cc1 [DEFACTINIB]

- % of control [11]: 5.7%
- % of control [12]: 0%
- % of control [13]: 3.5%
- % of control [14]: 4.4%
- % of control [15]: 7.3%
SMILES: CN(c1ccnc(CNc2nc(Nc3ccc4c(c3)CC(=O)N4)ncc2C(F)(F)F)n1)S(C)(=O)=O [PF-00911705]
